Earlier results as cited in patent publication US9173845B2, “Controlled release pharmaceutical compositions of milnacipran” (priority 2009, dated 2015).

Settings: immediate release Milnacipran, background

half-life: ~8 h
SMILES: CCN(CC)C(=O)C1(c2ccccc2)CC1CN (stereo not drawn) [Milnacipran, cis-2-amino methyl-N,N-diethyl-1-phenyl cyclopropane carboxamide]
